Measurements: ChEMBL document CHEMBL1201862, “PubChem BioAssay data set” (2004)
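The compound was tested at five concentrations on cells cultured in 96-well plates, with a 48-hour exposure period. The concentration for 50% growth inhibition is given as GI50.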 Activity calls are given as the source filed them. Cut-off read from the data, not from the text of the source: active = GI50 up to about 1.1 µM and inactive = higher.

Tests used:
Experiment in all cases: DTP human tumour cell line panel, 48 h
CCRF-CEM = test system: CCRF-CEM
MCF7 = test system: MCF7
HCT-116 = test system: HCT-116
MDA-N = test system: MDA-N
M14 = test system: M14
T47D = test system: T47D
K562 = test system: K562
UO-31 = test system: UO-31
HT-29 = test system: HT-29
SW-620 = test system: SW-620
786-0 = test system: 786-0
SK-MEL-2 = test system: SK-MEL-2
A549 = test system: A549
SF-539 = test system: SF-539
COLO 205 = test system: COLO 205
SN12C = test system: SN12C
TK-10 = test system: TK-10
HL-60 = test system: HL-60
Malme-3M = test system: Malme-3M
SR = test system: SR

Structure (SMILES)	GI50 (CCRF-CEM)	GI50 (MCF7)	GI50 (HCT-116)	GI50 (MDA-N)	GI50 (M14)	GI50 (T47D)	GI50 (K562)	GI50 (UO-31)	GI50 (HT-29)	GI50 (SW-620)	GI50 (786-0)	GI50 (SK-MEL-2)	GI50 (A549)	GI50 (SF-539)	GI50 (COLO 205)	GI50 (SN12C)	GI50 (TK-10)	GI50 (HL-60)	GI50 (Malme-3M)	GI50 (SR)
Cc1cccc(C)c1NC(=S)NC=C(C(N)=O)C(N)=O	> 100 µM (inactive)	> 100 µM (inactive)	> 100 µM (inactive)	> 100 µM (inactive)	> 100 µM (inactive)	> 100 µM (inactive)	> 100 µM (inactive)	> 100 µM (inactive)	> 100 µM (inactive)	> 100 µM (inactive)	> 100 µM (inactive)	> 100 µM (inactive)	> 100 µM (inactive)	> 100 µM (inactive)	> 100 µM (inactive)	> 100 µM (inactive)	> 100 µM (inactive)	–	–	–
O=c1oc2ccc3ccccc3c2cc1-c1nc2ccccc2s1	> 100 µM (inactive)	–	> 100 µM (inactive)	> 100 µM (inactive)	> 100 µM (inactive)	> 66.7 µM (inactive)	> 20.6 µM (inactive)	> 100 µM (inactive)	> 100 µM (inactive)	> 100 µM (inactive)	> 100 µM (inactive)	> 100 µM (inactive)	> 23.1 µM (inactive)	> 100 µM (inactive)	> 100 µM (inactive)	> 100 µM (inactive)	> 100 µM (inactive)	> 100 µM (inactive)	> 100 µM (inactive)	–
C#CCNC(CCCNC(=N)N)C(=O)O (stereo not drawn)	> 100 µM (inactive)	–	> 100 µM (inactive)	–	> 100 µM (inactive)	> 100 µM (inactive)	> 100 µM (inactive)	> 100 µM (inactive)	> 100 µM (inactive)	> 100 µM (inactive)	> 100 µM (inactive)	> 100 µM (inactive)	> 100 µM (inactive)	–	> 100 µM (inactive)	–	> 100 µM (inactive)	> 100 µM (inactive)	> 100 µM (inactive)	> 100 µM (inactive)
CC(=O)O[C@H]1C(=O)[C@@]2(C)[C@H]([C@H](OC(=O)c3ccccc3)[C@]3(O)C[C@H](OC(=O)[C@H](O)[C@@H](NC(=O)C(C)(C)C)c4ccccc4)C(C)=C1C3(C)C)[C@]1(OC(C)=O)CO[C@@H]1C[C@@H]2O	0.0397 µM (active)	0.031 µM (active)	0.0322 µM (active)	0.022 µM (active)	0.0982 µM (active)	–	0.0516 µM (active)	0.395 µM (active)	0.0414 µM (active)	0.0459 µM (active)	0.324 µM (active)	0.0736 µM (active)	0.0809 µM (active)	0.0585 µM (active)	0.0444 µM (active)	0.0807 µM (active)	0.38 µM (active)	0.018 µM (active)	0.165 µM (active)	0.0405 µM (active)
CN(C)/C=N/C1CCC(C(C)(C)C)CC1 (stereo not drawn)	–	27.9 µM (inactive)	16 µM (inactive)	–	17.6 µM (inactive)	16.4 µM (inactive)	15 µM (inactive)	16.3 µM (inactive)	8.69 µM (inactive)	16.9 µM (inactive)	17.6 µM (inactive)	18.6 µM (inactive)	18.7 µM (inactive)	17.5 µM (inactive)	17.3 µM (inactive)	17.7 µM (inactive)	21.8 µM (inactive)	15.3 µM (inactive)	18.4 µM (inactive)	–
[N-]=[N+]=NCN1C(=O)C2C3C=CC(C2C1=O)C1C2C(=O)N(CN=[N+]=[N-])C(=O)C2C31 (stereo not drawn)	–	> 100 µM (inactive)	> 100 µM (inactive)	> 100 µM (inactive)	> 100 µM (inactive)	> 100 µM (inactive)	> 100 µM (inactive)	> 100 µM (inactive)	> 100 µM (inactive)	> 100 µM (inactive)	> 100 µM (inactive)	> 100 µM (inactive)	> 100 µM (inactive)	> 100 µM (inactive)	> 100 µM (inactive)	> 100 µM (inactive)	> 100 µM (inactive)	–	–	–
O=S(=O)(c1cc(Cl)ccc1Cl)N1CCN(c2ccc(Cl)c(Cl)c2)CC1	44.8 µM (inactive)	> 100 µM (inactive)	34.6 µM (inactive)	–	39.6 µM (inactive)	20.4 µM (inactive)	91.6 µM (inactive)	35.8 µM (inactive)	88.1 µM (inactive)	> 100 µM (inactive)	17.9 µM (inactive)	–	35.7 µM (inactive)	25.2 µM (inactive)	–	78.5 µM (inactive)	20.6 µM (inactive)	> 100 µM (inactive)	37.7 µM (inactive)	> 100 µM (inactive)
CC(C)C1(Cl)CCC2C3(C)CCCC(C)(C(=O)O)C3CC(Cl)C2(Cl)C1Cl (stereo not drawn)	22.8 µM (inactive)	30.5 µM (inactive)	28.2 µM (inactive)	32.4 µM (inactive)	23.1 µM (inactive)	–	24.3 µM (inactive)	32.1 µM (inactive)	14.7 µM (inactive)	24.8 µM (inactive)	32.6 µM (inactive)	31.4 µM (inactive)	23.5 µM (inactive)	21.7 µM (inactive)	18 µM (inactive)	39.2 µM (inactive)	43.3 µM (inactive)	22.3 µM (inactive)	25.5 µM (inactive)	25.6 µM (inactive)
OC1(c2ccc(-c3ccccc3)cc2)c2ccccc2C2=NCCN21 (stereo not drawn)	39.9 µM (inactive)	–	30.3 µM (inactive)	> 100 µM (inactive)	–	86.9 µM (inactive)	70.5 µM (inactive)	30.6 µM (inactive)	21.4 µM (inactive)	45.4 µM (inactive)	16 µM (inactive)	3.61 µM (inactive)	84.9 µM (inactive)	–	21.4 µM (inactive)	> 100 µM (inactive)	> 100 µM (inactive)	33.7 µM (inactive)	–	33.8 µM (inactive)
CC[C@]1(Cc2ccc(OC)c(OC)c2)C=[N+]([O-])O[C@H](OC2CCCC2(c2ccccc2)c2ccccc2)[C@@H]1OC(=O)C(C)(C)C (stereo partly drawn)	2.6 µM (inactive)	2.74 µM (inactive)	1.98 µM (inactive)	–	3.51 µM (inactive)	2.49 µM (inactive)	3.61 µM (inactive)	1.77 µM (inactive)	1.86 µM (inactive)	10.1 µM (inactive)	2.05 µM (inactive)	2.66 µM (inactive)	3.11 µM (inactive)	–	2.6 µM (inactive)	3.07 µM (inactive)	3.23 µM (inactive)	2.18 µM (inactive)	–	7.93 µM (inactive)
COc1cccc(-c2nc(-c3cnccn3)n(C/C=C/c3ccccc3)n2)c1	> 10 µM (inactive)	> 10 µM (inactive)	–	> 10 µM (inactive)	> 10 µM (inactive)	–	> 10 µM (inactive)	> 10 µM (inactive)	> 10 µM (inactive)	> 10 µM (inactive)	> 10 µM (inactive)	> 10 µM (inactive)	> 10 µM (inactive)	> 10 µM (inactive)	–	> 10 µM (inactive)	> 10 µM (inactive)	–	> 10 µM (inactive)	> 10 µM (inactive)
CCN1C/C(=C\c2ccc(Cl)cc2)c2nc(N)c(C#N)c(-c3ccc(Cl)cc3)c2C1	> 100 µM (inactive)	> 100 µM (inactive)	> 100 µM (inactive)	> 100 µM (inactive)	> 100 µM (inactive)	–	> 100 µM (inactive)	> 100 µM (inactive)	> 100 µM (inactive)	> 100 µM (inactive)	> 100 µM (inactive)	> 100 µM (inactive)	> 100 µM (inactive)	–	> 100 µM (inactive)	–	> 100 µM (inactive)	> 100 µM (inactive)	> 100 µM (inactive)	27.1 µM (inactive)
Nc1nc(Cl)c(CO)c(NCC2(CO)CC(CCc3ccccc3)C2)n1 (stereo not drawn)	16.5 µM (inactive)	14.3 µM (inactive)	0.979 µM (active)	> 100 µM (inactive)	–	–	1.37 µM (inactive)	17.3 µM (inactive)	22.2 µM (inactive)	19.6 µM (inactive)	31.8 µM (inactive)	–	18.6 µM (inactive)	21.9 µM (inactive)	14.5 µM (inactive)	31.1 µM (inactive)	80.2 µM (inactive)	3.4 µM (inactive)	14.2 µM (inactive)	4.82 µM (inactive)
CCc1cccc(C(C)C)c1NC(=O)/C(=N\NC(N)=O)C(C(=O)OC)c1cnc2ccccc2n1 (stereo not drawn)	39 µM (inactive)	–	24.2 µM (inactive)	–	39.6 µM (inactive)	–	37.2 µM (inactive)	> 100 µM (inactive)	35.8 µM (inactive)	39.5 µM (inactive)	60.8 µM (inactive)	53.3 µM (inactive)	24.8 µM (inactive)	52.7 µM (inactive)	20.9 µM (inactive)	35 µM (inactive)	> 100 µM (inactive)	31.8 µM (inactive)	34.4 µM (inactive)	46.5 µM (inactive)
CCCc1cc2c(cc1O)CC[C@@H]1[C@@H]2CC[C@]2(C)[C@@H](O)CC[C@@H]12	5.41 µM (inactive)	–	–	2.29 µM (inactive)	10.5 µM (inactive)	10.6 µM (inactive)	3.17 µM (inactive)	12 µM (inactive)	16.3 µM (inactive)	3.95 µM (inactive)	13.6 µM (inactive)	15.1 µM (inactive)	10.6 µM (inactive)	10.8 µM (inactive)	18.2 µM (inactive)	11.7 µM (inactive)	16.2 µM (inactive)	12.6 µM (inactive)	13 µM (inactive)	3.61 µM (inactive)
CO[C@@H]1[C@H](O)CC[C@]2(CO2)[C@H]1[C@@]1(C)O[C@@H]1CC=C(C)C	> 200 µM (inactive)	> 200 µM (inactive)	84.3 µM (inactive)	–	180 µM (inactive)	> 200 µM (inactive)	> 200 µM (inactive)	83.2 µM (inactive)	> 200 µM (inactive)	107 µM (inactive)	> 200 µM (inactive)	> 200 µM (inactive)	–	134 µM (inactive)	152 µM (inactive)	25 µM (inactive)	> 200 µM (inactive)	–	81.8 µM (inactive)	–
